Measurements reported in US12642799B2, “Composition and method for treating COVID-19” (University of South Florida, priority 2021, dated 2026).
Where two headings read alike, the source gives them in different places.

Columns and labels:
[1] = system: SARS CoV-2 infected Caco2 cells; format: cell-based
IL-6, IL-1β, and TNFα = format: cell-based
[2] = system: GFP-CoV-2 infected mature adipocytes; format: cell-based, SARS CoV-2; details: for reduction in infection by cytoimmunochemical staining (SARS CoV-2/ACE2): mature adipocytes, FIG. 3C
CoV-2 infection = format: in vivo, human; details: obese Type 2 diabetic patient, oral, retested twice over several weeks
[3] = system: serum inflammatory markers and anti-inflammatory cytokines; details: Type 2 diabetic patients; cited from earlier work

SMILES | expression of SARS CoV-2 N protein (fold change) [1] | expression of SARS CoV-2 S protein (fold change) [1] | expression of IL-1β (fold change) (IL-6, IL-1β, and TNFα) | expression of IL-6 (fold change) (IL-6, IL-1β, and TNFα) | expression of TNFα (fold change) (IL-6, IL-1β, and TNFα) | inhibition of viral infection (integrated density of GFP expression) [2] | reduction in infection by cytoimmunochemical staining (SARS CoV-2/ACE2) [2] | inhibition of viral infection (integrated density of GFP expression) ([2]; […], metformin 10 mM, sitagliptin 20 uM) | virus test after treatment (CoV-2 infection) | anti-inflammatory cytokines [3] | serum levels of inflammatory markers [3]
CN(C)C(=N)N=C(N)N [metformin] | decreasing expression | decreasing expression | decreasing expression | decreasing expression | decreasing expression | inhibited viral infection | reduction in infection | – | – | – | –
N[C@@H](CC(=O)N1CCn2c(nnc2C(F)(F)F)C1)Cc1cc(F)c(F)cc1F [sitagliptin] | larger decrease than metformin | larger decrease than metformin | decreasing expression | decreasing expression | decreasing expression | – | highest reduction | highest reduction | tests negative for the virus | increased | significantly decreased
